# Results: BindingDB's records for doi:10.1021/jm00120a002 (Merck Sharp & Dohme Research Laboratories, 1989)
# Key:
# [1] = Half-maximal inhibition of [125I]gastrin binding to guinea pig gastric glands
# [2] = Half-maximal inhibition of [125I]CCK-33 binding to cholecystokinin receptor
SMILES,IC50 [1],IC50 [2]
CCOC(=O)CN1C(=O)C(NC(=O)c2cc3ccccc3[nH]2)N=C(c2ccccc2F)c2ccccc21 (centres undefined),0.12 µM,–
O=C(NC1N=C(c2ccccc2)c2ccccc2NC1=O)c1ccc(F)cc1 (centres undefined),9.4 µM,–
O=C1Nc2ccc(Cl)cc2C(c2ccccc2)=N[C@@H]1Cc1c[nH]c2ccccc12,–,3.4 µM
CN1C(=O)C(NC(=O)c2cc3ccccc3n2C)N=C(c2ccccc2F)c2ccccc21 (centres undefined),1.6 µM,–
O=C(NC1N=C(c2ccccc2)c2ccccc2NC1=O)c1ccc(C(F)(F)F)cc1 (centres undefined),36 µM,–
O=C(NC1N=C(c2ccccc2F)c2ccccc2NC1=O)c1ccccc1 (centres undefined),28 µM,–
O=C(NC1N=C(c2ccccc2)c2ccccc2NC1=O)c1ccc(Cl)cc1 (centres undefined),8.2 µM,–
O=C(NC1N=C(c2ccccc2)c2ccccc2NC1=O)c1cccc2ccccc12 (centres undefined),29 µM,–
O=C1Nc2ccccc2C(c2ccccc2F)=NC1NCc1cc2ccccc2[nH]1 (centres undefined),> 10 µM,–
CN1C(=O)C(NC(=O)[C@H](Cc2ccccc2)NC(=O)OC(C)(C)C)N=C(c2ccccc2F)c2ccccc21 (some centres undefined),1.2 µM,–
CN1C(=O)C(NC(=O)[C@@H](Cc2ccccc2)NC(=O)OC(C)(C)C)N=C(c2ccccc2)c2ccccc21 (some centres undefined),26 µM,–
CN1C(=O)C(NC(=O)c2ccccc2Cl)N=C(c2ccccc2)c2ccccc21 (centres undefined),30 µM,–
O=C1Nc2ccccc2C(c2ccccc2)=NC1NCCc1c[nH]c2ccccc12 (centres undefined),> 100 µM,–
O=C(Cc1c[nH]c2ccccc12)NC1N=C(c2ccccc2)c2ccccc2NC1=O (centres undefined),32 µM,–
O=C(NC1N=C(c2ccccc2)c2ccccc2NC1=O)c1ccc(O)cc1 (centres undefined),31 µM,–
O=C(NC1N=C(c2ccccc2)c2ccccc2NC1=O)c1cc2ccccc2[nH]1 (centres undefined),4 µM,–
CN1C(=O)C(N(C)C(=O)c2ccccc2Cl)N=C(c2ccccc2)c2ccccc21 (centres undefined),> 100 µM,–
O=C(NC1N=C(c2ccccc2F)c2ccccc2NC1=O)c1cc2ccccc2o1 (centres undefined),11 µM,–
O=C(NC1N=C(c2ccccc2F)c2ccccc2NC1=O)c1cc2ccccc2[nH]1 (centres undefined),4.6 µM,–
CN1C(=O)[C@H](NC(=O)c2cc3ccccc3[nH]2)N=C(c2ccccc2F)c2ccccc21,0.24 µM,–
O=C(NC1N=C(c2ccccc2F)c2ccccc2NC1=O)c1ccc(Cl)cc1 (centres undefined),14 µM,–
CN1C(=O)CN=C(c2ccccc2)c2ccccc21,94 µM,–
O=C(CCc1c[nH]c2ccccc12)NC1N=C(c2ccccc2)c2ccccc2NC1=O (centres undefined),17 µM,–
CSc1ccc(C(=O)NC2N=C(c3ccccc3)c3ccccc3NC2=O)cc1 (centres undefined),8 µM,–
CN(C(=O)c1cc2ccccc2[nH]1)C1N=C(c2ccccc2)c2ccccc2NC1=O (centres undefined),> 10 µM,–
COc1ccc(C(=O)NC2N=C(c3ccccc3F)c3ccccc3NC2=O)cc1 (centres undefined),5.4 µM,–
CN1C(=O)C(NC(=O)c2ccc(Cl)cc2)[N+]([O-])=C(c2ccccc2F)c2ccccc21 (centres undefined),2.4 µM,–

SMILES,IC50 [1],IC50 [2]
CC1(C(=O)NC2N=C(c3ccccc3F)c3ccccc3NC2=O)C=Cc2ccccc21 (centres undefined),> 10 µM,–
CC(C)(C)OC(=O)N[C@H](Cc1ccccc1)C(=O)NC1N=C(c2ccccc2)c2ccccc2NC1=O (some centres undefined),> 100 µM,–
CN1C(=O)[C@@H](NC(=O)c2ccc(Cl)cc2)N=C(c2ccccc2F)c2ccccc21,0.8 µM,–
CN1C(=O)[C@@H](NC(=O)c2ccc(Br)cc2)N=C(c2ccccc2F)c2ccccc21,0.68 µM,–
CC(C)C(=O)N[C@H]1N=C(c2ccccc2)c2ccccc2N(C)C1=O,73 µM,–
CN1C(=O)[C@H](NC(=O)C2CCCCC2)N=C(c2ccccc2)c2ccccc21,1.5 µM,–
CN1C(=O)[C@@H](NC(=O)c2ccccc2Cl)N=C(c2ccccc2)c2ccccc21,130 µM,–
CN1C(=O)[C@@H](NC(=O)c2cc3ccccc3[nH]2)N=C(c2ccccc2F)c2ccccc21,0.028 µM,–
CCCCCc1ccc(C(=O)N[C@H]2N=C(c3ccccc3F)c3ccccc3N(C)C2=O)cc1,60 µM,–
CN1C(=O)[C@@H](NC(=O)c2ccc(I)cc2)N=C(c2ccccc2F)c2ccccc21,0.53 µM,–
CN1C(=O)[C@@H](NC(=O)c2cccc(Br)c2)N=C(c2ccccc2F)c2ccccc21,0.75 µM,–
CC(C)CCC(=O)N[C@H]1N=C(c2ccccc2)c2ccccc2N(C)C1=O,130 µM,–
CN1C(=O)[C@@H](NC(=O)/C=C/c2ccccc2)N=C(c2ccccc2)c2ccccc21,0.18 µM,–
"CN1C(=O)C(NC(=O)c2cc3ccccc3[nH]2)N=C(c2ccccc2F)c2ccccc21 (centres undefined) [1H-Indole-2-carboxylic acid [5-(2-fluoro-phenyl)-1-methyl-2-oxo-2,3-dihydro-1H-benzo[e][1,4]diazepin-3-yl]-amide]",0.19 µM,–
"CN1C(=O)C(NC(=O)c2ccc(Cl)cc2N)N=C(c2ccccc2)c2ccccc21 (centres undefined) [2-Amino-4-chloro-N-(1-methyl-2-oxo-5-phenyl-2,3-dihydro-1H-benzo[e][1,4]diazepin-3-yl)-benzamide.H2O]",1.9 µM,–
"O=C(NC1N=C(c2ccccc2)c2ccccc2NC1=O)c1ccccc1Cl (centres undefined) [2-Chloro-N-(2-oxo-5-phenyl-2,3-dihydro-1H-benzo[e][1,4]diazepin-3-yl)-benzamide. 0.02CHCl3]",52 µM,–
"O=C(NC1N=C(c2ccccc2F)c2ccccc2NC1=O)c1ccccc1Cl (centres undefined) [2-Chloro-N-[5-(2-fluoro-phenyl)-2-oxo-2,3-dihydro-1H-benzo[e][1,4]diazepin-3-yl]-benzamide: 0.1C4H8O2]",18 µM,–
"O=C(NC1N=C(c2ccccc2)c2ccccc2NC1=O)c1cccc(Cl)c1 (centres undefined) [3-Chloro-N-(2-oxo-5-phenyl-2,3-dihydro-1H-benzo[e][1,4]diazepin-3-yl)-benzamide:0.5CHCl3]",19 µM,–
"CN1C(=O)C(NC(=O)c2ccc(Br)cc2)N=C(c2ccccc2)c2ccccc21 (centres undefined) [4-Bromo-N-(1-methyl-2-oxo-5-phenyl-2,3-dihydro-1H-benzo[e][1,4]diazepin-3-yl)-benzamide:0.05C3H6O]",1.7 µM,–
"N#Cc1ccc(C(=O)NC2N=C(c3ccccc3)c3ccccc3NC2=O)cc1 (centres undefined) [4-Cyano-N-(2-oxo-5-phenyl-2,3-dihydro-1H-benzo[e][1,4]diazepin-3-yl)-benzamide]",22 µM,–
"CC(C)(C)c1ccc(C(=O)NC2N=C(c3ccccc3)c3ccccc3NC2=O)cc1 (centres undefined) [4-tert-Butyl-N-(2-oxo-5-phenyl-2,3-dihydro-1H-benzo[e][1,4]diazepin-3-yl)-benzamide: 0.12CHCl3]",40 µM,–
"O=C(NC1N=C(c2ccccc2F)c2ccccc2NC1=O)c1cc2cc(Cl)ccc2[nH]1 (centres undefined) [5-Chloro-1H-indole-2-carboxylic acid [5-(2-fluoro-phenyl)-2-oxo-2,3-dihydro-1H-benzo[e][1,4]diazepin-3-yl]-amide]",20 µM,–
"O=C(NC1N=C(c2ccccc2F)c2ccccc2NC1=O)c1cc2cc(F)ccc2[nH]1 (centres undefined) [5-Fluoro-1H-indole-2-carboxylic acid [5-(2-fluoro-phenyl)-2-oxo-2,3-dihydro-1H-benzo[e][1,4]diazepin-3-yl]-amide: 0.23CHCL3]",> 10 µM,–
"O=C(NC1N=C(c2ccccc2F)c2ccccc2NC1=O)c1cc2cc(O)ccc2[nH]1 (centres undefined) [5-Hydroxy-1H-indole-2-carboxylic acid [5-(2-fluoro-phenyl)-2-oxo-2,3-dihydro-1H-benzo[e][1,4]diazepin-3-yl]-amide]",29 µM,–
"CN1C(=O)[C@H](NC(=O)[C@H](N)Cc2ccccc2)N=C(c2ccccc2)c2ccccc21 [(R)-2-amino-N-((R)-1-methyl-2-oxo-5-phenyl-2,3-dihydro-1H-benzo[e][1,4]diazepin-3-yl)-3-phenylpropanamide]",55 µM,–
O=C(O)CN1C(=O)C(NC(=O)c2cc3ccccc3[nH]2)N=C(c2ccccc2)c2ccccc21 (centres undefined) [CCK antagonist synthetic 20],0.65 µM,–
"CCOC(=O)CN1C(=O)C(NC(=O)c2ccccc2Cl)N=C(c2ccccc2F)c2ccccc21 (centres undefined) [[3-(2-Chloro-benzoylamino)-5-(2-fluoro-phenyl)-2-oxo-2,3-dihydro-benzo[e][1,4]diazepin-1-yl]-acetic acid ethyl ester]",1.3 µM,–
